Experimental data published in US20160213569A1, “PHARMACEUTICAL COMPOSITIONS OF RANOLAZINE AND DRONEDARONE” (Gilead Sciences, Inc., priority 2013, published 2016).

Assay: Stability of phosphoric acid salt of dronedarone prepared without polymer
Assay type: physicochemical
Conditions: 45° C. and 75% relative humidity (RH)

Question: For `CCCCc1oc2ccc(NS(C)(=O)=O)cc2c1C(=O)c1ccc(OCCCN(CCCC)CCCC)cc1.O=P(O)(O)O` [phosphoric acid salt of dronedarone], which Stability is on record?
Answer: The Stability was “unstable”.
